Results as given in article PMC11279551, “Pharmacokinetics and Enterohepatic Circulation of 2-(Quinoline-8-carboxamido)benzoic Acid (2-QBA) in Mice” (Pharmaceutics, 2024).
In brackets after ≈: the same amount, converted by molar mass. Like-named read-outs stand apart in the source and are kept apart here.

Key:
[1] = Effect of activated charcoal (AC) on the pharmacokinetics of 2-QBA; assay type: in vivo; conditions: mice; for AUC(0-t): read-out: AUC24h
Protocol: To elucidate the reabsorption mechanism of 2-QBA, a pharmacokinetic study of 2-QBA was conducted with activated charcoal (AC) administered PO. Male ICR mice (7 weeks old, 25–30 g) were fasted for 14–16 h prior to the administration of 2-QBA.
In total, […] were administered 2-QBA (1 mg/kg/3 mL) via the tail vein. Two hours after the 2-QBA dosing, AC (0.8 g/kg/5 mL in distilled water) or a vehicle (5 mL/kg distilled water) was administrated via oral gavage. Each group included ten mice who were randomly divided into two groups for sparse sampling. Blood collection was performed at 0.083, 0.5, 2, and 8 h from 5 mice and at 0.25, 1, 4, and 24 h from another 5 mice, as described previously. Four mice treated with either AC (0.8 g/kg) or the vehicle 2 h after the 2-QBA IV dosing (1 mg/kg) were returned to a metabolic cage to collect the urine and feces samples. The urine and feces samples were collected for 72 h.
Next, 2-QBA was administered PO (2 mg/kg/5 mL) with or without AC (0.8 g/kg in 3 mL of DW), which was administered via oral gavage 2 h after the 2-QBA dosing. Each group included eight mice who were randomly divided into two groups for sparse sampling. Blood collection was performed at 0.25, 0.75, 2, and 8 h from 4 mice and at 0.5, 1, 4, and 24 h from another 4 mice, as described previously. Four mice treated with either AC (0.8 g/kg) or vehicle 2 h after the 2-QBA PO dosing (2 mg/kg) were returned to a metabolic cage to collect the urine and feces samples. The urine and feces samples were collected for 72 h.
Aliquots of plasma samples (30 μL) were added to 120 μL of IS solution. The mixture was vigorously vortexed for 5 min and then centrifuged at 13,000× g for 5 min. The supernatant was transferred to autosampler vials. Subsequently, a 3 μL aliquot was injected into the LC-MS/MS system. Aliquots (30 μL) of urine and 10% feces homogenate samples were added to 60 μL of 150 mM sodium acetate buffer (pH 5.0) in the presence or absence of β-glucuronidase (900 unit) at 37 °C for 2 h. The reaction was quenched by adding four volumes of ice-cold IS solution. The mixture was vigorously vortexed for 5 min, followed by centrifugation at 13,000× g for 5 min. The supernatant was transferred to autosampler vials and subsequently a 3 μL aliquot was injected into the LC-MS/MS system.
(§1) WinNonlin 5.1 software (Pharsight Co., Mountain View, CA, USA) was used to calculate the pharmacokinetic parameters. AUClast and AUCinf indicate the areas under the plasma concentration curve from 0 h to the last sample and from 0 h to infinity, respectively; these were estimated using the linear trapezoidal method. T1/2 is the elimination half-life, which is estimated from the elimination coefficient (k) (i.e., 0.693/k), and MRT is the mean residence time. CL is the total clearance, which is calculated by dividing the dose by AUCinf. Vdss is the volume of the distribution at a steady state, calculated from MRTxCL. CLrenal and CLfeces are calculated by dividing the amount excreted in urine and feces by the AUCinf, respectively. CLmetabolism is calculated by subtracting CLrenal and CLfeces from CL. Cmax and Tmax are the maximum plasma concentration and time to reach Cmax, respectively. BA is calculated by dividing the dose-normalized AUCinf for PO administration (AUCinf/PO dose) by the dose-normalized AUCinf for IV administration (AUCinf/IV dose). All data are expressed as the mean ± standard deviation (SD).

[2] = Pharmacokinetics after IV administration in mice; assay type: in vivo; conditions: plasma; for AUC(0-inf) / MRT / clearance / half-life / AUC(0-t) / Vd: male, ICR, mouse; for AUC(0-t): read-out: AUC24h; for Vd: read-out: Vdss
Protocol: Male ICR mice (7 weeks old, […]; Samtako, Osan, Korea) were acclimated to the animal facility at Kyungpook National University for one week with free access to animal chow and water. In the per oral administration (PO) groups, the mice were fasted for 14–16 h prior to the administration of 2-QBA.
For intravenous (IV) administration, 2-QBA (0.5 mg/kg in 3 mL of saline containing 10% DMSO) was injected via the tail vein for eight mice that were randomly divided into two groups for sparse sampling. Blood samples were collected via the jugular vein at 0.083, 0.5, 2, and 8 h from 4 mice and at 0.25, 1, 4, and 24 h from another 4 mice. Eight mice were administered 1 mg/kg of 2-QBA using the same protocol described above.
After the PO administration of 2-QBA (2 mg/kg in 5 mL of saline containing 10% DMSO) using an oral gavage for 10 mice, blood samples were collected at 0.25, 0.75, 2, and 8 h from 5 mice and at 0.5, 1, 4, and 24 h from another 5 mice. Ten mice in each group were administered 5 mg/kg or 15 mg/kg of 2-QBA using an oral gavage and blood was drawn using the same protocol described above. All blood samples were centrifuged at 13,000× g for 1 min and the supernatant plasma (30 μL) was stored at −80 °C until the analysis of the 2-QBA. For the analysis of 2-QBA in the plasma samples, 120 μL of IS solution (berberine 1 ng/mL in acetonitrile) was added to plasma samples (30 μL). The mixture was vigorously vortexed for 5 min and then centrifuged at 13,000× g for 5 min. The supernatant was transferred to autosampler vials. Subsequently, a 3 μL aliquot was injected into the LC-MS/MS system.
as §1

Water solubility = assay type: physicochemical; conditions: n = 4
[3] = male, ICR, mouse, plasma, iv, 1 mg/kg, IV 1 mg/kg, AC (0.8 g/kg)
[4] = male, ICR, mouse, plasma, iv, 1 mg/kg, IV 1 mg/kg, Control
[5] = male, ICR, mouse, plasma, po, 2 mg/kg, PO 2 mg/kg, AC (0.8 g/kg)
[6] = male, ICR, mouse, plasma, po, 2 mg/kg, PO 2 mg/kg, Control

- AUC(0-t) ([1]; male, ICR, mouse, plasma, intravenous, 1 mg/kg, IV 1 mg/kg, AC (0.8 g/kg) PO 2 h after dosing): 1180 ± 264 ng·h/mL
- AUC(0-inf) [1, 3]: 1210 ± 293 ng·h/mL
- MRT [1, 3]: 2.48 ± 2.56 h
- clearance [1, 3]: 14.5 ± 3.95 mL/min/kg
- half-life [1, 3]: 3.18 ± 2.52 h
- AUC(0-inf) [1, 4]: 1330 ± 422 ng·h/mL
- MRT [1, 4]: 2.88 ± 1.14 h
- clearance [1, 4]: 13.9 ± 5.41 mL/min/kg
- half-life [1, 4]: 3.88 ± 1.72 h
- AUC(0-t) ([1]; male, ICR, mouse, plasma, iv, 1 mg/kg, IV 1 mg/kg, Control (vehicle 2 h after dosing)): 1270 ± 361 ng·h/mL
- AUC(0-inf) [1, 5]: 836 ± 209 ng·h/mL
- MRT [1, 5]: 7 ± 2.48 h
- half-life [1, 5]: 5.5 ± 2.24 h
- Cmax ([1]; male, ICR, mouse, plasma, po, 2 mg/kg, PO 2 mg/kg, AC (0.8 g/kg) 2 h after dosing): 315 ± 106 ng/mL
- AUC(0-t) [1, 5]: 650 ± 305 ng·h/mL
- AUC(0-inf) [1, 6]: 2110 ± 608 ng·h/mL
- Cmax [1, 6]: 399 ± 90.7 ng/mL
- MRT [1, 6]: 8.49 ± 3.08 h
- half-life [1, 6]: 6.05 ± 2.04 h
- AUC(0-t) [1, 6]: 1930 ± 453 ng·h/mL
- Tmax ([1]; male, ICR, mouse, plasma, PO 2 mg/kg, Control): 0.25 h
- BA ([1]; PO 2 mg/kg, AC (0.8 g/kg)): 34.5%
- BA ([1]; PO 2 mg/kg, Control): 79.8%
- AUC24h/dose ([2]; IV 0.5 mg/kg): 824.7 ± 64.1 ng·h/mL/mg/kg
- AUCinf/dose ([2]; IV 0.5 mg/kg): 835.6 ± 64.6 ng·h/mL/mg/kg
- AUC24h/dose ([2]; IV 1.0 mg/kg): 996.7 ± 146.6 ng·h/mL/mg/kg
- AUCinf/dose ([2]; IV 1.0 mg/kg): 1044 ± 174.9 ng·h/mL/mg/kg
- AUC(0-inf) ([2]; IV 0.5 mg/kg): 418 ± 32.3 ng·h/mL
- MRT ([2]; IV 0.5 mg/kg): 3.88 ± 1.58 h
- clearance ([2]; IV 0.5 mg/kg): 20 ± 1.53 mL/min/kg
- half-life ([2]; IV 0.5 mg/kg): 4.61 ± 2.19 h
- AUC(0-t) ([2]; IV 0.5 mg/kg): 412 ± 32.1 ng·h/mL
- Vd ([2]; IV 0.5 mg/kg): 4.73 ± 2.15 L/kg
- AUC(0-inf) ([2]; IV 1.0 mg/kg): 1040 ± 175 ng·h/mL
- MRT ([2]; IV 1.0 mg/kg): 3.03 ± 1.11 h
- clearance ([2]; IV 1.0 mg/kg): 16.3 ± 2.81 mL/min/kg
- half-life ([2]; IV 1.0 mg/kg): 5.26 ± 1.31 h
- AUC(0-t) ([2]; IV 1.0 mg/kg): 997 ± 147 ng·h/mL
- Vd ([2]; IV 1.0 mg/kg): 2.88 ± 0.72 L/kg
- solubility (Water solubility): 35.6 ± 2.71 µg/mL (≈ 122 µM)
Structure (SMILES): O=C(O)c1ccccc1NC(=O)c1cccc2cccnc12 [2-QBA, 2-(quinoline-8-carboxamido)benzoic acid]
